Reference: US10829520B2, “Beta-hairpin peptidomimetics” (POLYPHOR AG, priority 2015, dated 2020)
Like-named read-outs stand apart in the source and are kept apart here. Where a SMILES comes first, the peptide text is derived from it. Bridges are numbered along the chain shown (N, C = ends). Roman numbers before positions name the chains, in order. [ ]: non-standard residue; d: D form. Hyp = O=C(O)[C@@H]1C[C@@H](O)CN1; Tle = CC(C)(C)[C@H](N)C(=O)O; dDab = NCC[C@@H](N)C(=O)O; Nle = CCCC[C@H](N)C(=O)O; Orn = NCCC[C@H](N)C(=O)O; Dab = NCC[C@H](N)C(=O)O; dAze = O=C(O)[C@H]1CCN1

Legend:
Format in all cases: cell-based
[1] = test system: human red blood cells (hRBC); test: Hemolysis of human red blood cells
In short: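 Percent lysis of washed human erythrocytes after 1 h at 37° C. with 100 μg/mL peptide, calculated from OD540 of 8-fold diluted supernatant as a fraction of the 2.5% Triton X-100 value.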

[2] = test system: Pseudomonas aeruginosa ATCC 27853
In short: (§1)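 Broth microdilution per CLSI, cation-adjusted MH-II medium, 0.002% (v/v) polysorbate 80 final. Approx. 10^6 CFU/mL inoculum, incubated 35° C for 18-20 h; MIC read as absence of visible growth.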

Escherichia coli 926415 = test system: Escherichia coli 926415
[3] = test system: Klebsiella pneumoniae 968733
[4] = test system: Acinetobacter baumannii 872842
[5] = test system: Escherichia coli ATCC 25922
In short: as §1

[6] = test system: Klebsiella pneumoniae SSI #3010
In short: as §1

[7] = test system: Acinetobacter baumannii DSM 30008
In short: as §1

[8] = red cells of human, 1 h, 100 μg/mL
[9] = clinical isolate, Mueller-Hinton II broth, P-80 0.002% present

Compound	Hemolysis at 100 μg/mL ([1]; red cells of human, 1 h, 100)	Pseudomonas aeruginosa ATCC 27853 MIC ([2]; ATCC 27853)	Escherichia coli 926415 MIC (Escherichia coli 926415; 926415)	Klebsiella pneumoniae 968733 MIC [3]; 968733	Acinetobacter baumannii 872842 MIC [4]; 872842	Escherichia coli ATCC 25922 MIC ([5]; ATCC 25922)	Klebsiella pneumoniae SSI #3010 MIC ([6]; SSI #3010)	Acinetobacter baumannii DSM 30008 MIC ([7]; DSM 30008)	Hemolysis at 100 μg/mL [1, 8]	Hemolysis at 100 μg/mL ([1]; 100 μg/mL, 20% hRBC, 1 h at 37° C.)	Pseudomonas aeruginosa ATCC 27853 MIC ([2]; Mueller-Hinton II broth)	Escherichia coli 926415 MIC (Escherichia coli 926415; [9])	Klebsiella pneumoniae 968733 MIC [3, 9]	Acinetobacter baumannii 872842 MIC [4, 9]	Escherichia coli ATCC 25922 MIC ([5]; Mueller-Hinton II broth)	Klebsiella pneumoniae SSI #3010 MIC ([6]; Mueller-Hinton II broth)	Acinetobacter baumannii DSM 30008 MIC ([7]; Mueller-Hinton II broth)
CC(C)C[C@@H]1NC(=O)[C@@H](Cc2ccccc2)NC(=O)[C@H](CCN)NC(=O)[C@@H](NC(=O)[C@H](CCN)NC(=O)[C@@H](NC(=O)[C@H](CCN)NC(=O)CC[C@@H]2NC(=O)[C@H](CCN)NC(=O)[C@H](Cc3ccc(O)cc3)NC(=O)[C@H]([C@@H](C)O)NC(=O)[C@H](C(C)C)NC(=O)[C@@H]3CCCN3C(=O)[C@H]3CCN3C(=O)[C@H](CO)NC(=O)[C@H](C)NC(=O)[C@H](C(C)(C)C)NC(=O)[C@H](CCN)NC(=O)[C@H](Cc3c[nH]c4ccccc34)NC(=O)[C@H](CCN)NC(=O)[C@@H](CCN)NC2=O)[C@@H](C)O)CCNC(=O)[C@H]([C@@H](C)O)NC(=O)[C@H](CCN)NC(=O)[C@H](CCN)NC1=O [Ex. 80] (I: cyclo(W[Dab][Tle]AS[dAze]PVTY[Dab]E[dDab][Dab]) / II: [Dab]T[Dab][Dab][Dab][dF]L[Dab][Dab]T; amide I:12-II:N; lactam II:4-II:C)	<1%	0.25 µg/mL	0.25 µg/mL	1 µg/mL	0.5 µg/mL	0.25 µg/mL	0.25 µg/mL	0.5 µg/mL									
CC(C)C[C@@H]1NC(=O)[C@@H](CC(C)C)NC(=O)[C@H](CCN)NC(=O)[C@@H](NC(=O)[C@H](CCN)NC(=O)[C@@H](NC(=O)[C@H](CCN)NC(=O)[C@H](CCN)NC(=O)[C@@H]2CSSC[C@H](NC(=O)[C@@H](N)Cc3c[nH]c4ccccc34)C(=O)N[C@@H](C(C)C)C(=O)N[C@@H](C)C(=O)N[C@@H](CO)C(=O)N3CCC[C@@H]3C(=O)N3C[C@H](O)C[C@H]3C(=O)N[C@@H](CC(C)C)C(=O)N[C@@H](CO)C(=O)N[C@@H](Cc3ccc(O)cc3)C(=O)N2)[C@@H](C)O)CCNC(=O)[C@H]([C@@H](C)O)NC(=O)[C@H](CCN)NC(=O)[C@H](CCN)NC1=O [Ex. 123] (H-WCVAS[dP][Hyp]LSYC[Dab][Dab]T[Dab][Dab][Dab][dL]L[Dab][Dab]T; disulfide 2-11; lactam 16-C)		1 µg/mL	0.25 µg/mL	4 µg/mL	0.0625 µg/mL	0.125 µg/mL	0.125 µg/mL	0.25 µg/mL	<1%								
CC(=O)N[C@H]1CSSC[C@@H](C(=O)N[C@H](CCN)C(=O)N[C@H]2CCNC(=O)[C@H]([C@@H](C)O)NC(=O)[C@H](CCN)NC(=O)[C@H](CCN)NC(=O)[C@H](CC(C)C)NC(=O)[C@@H](Cc3ccccc3)NC(=O)[C@H](CCN)NC2=O)NC(=O)[C@H](CCCN)NC(=O)[C@H](CC(N)=O)NC(=O)[C@H](Cc2ccc(O)cc2)NC(=O)[C@@H]2CSSC[C@H](NC(=O)[C@H](Cc3ccc(O)cc3)NC(=O)[C@H](CO)NC(=O)[C@H](Cc3c[nH]c4ccccc34)NC1=O)C(=O)N[C@@H](C(C)C)C(=O)N[C@H](CCN)C(=O)N[C@@H](CCCNC(=N)N)C(=O)N[C@@H](CC(C)C)C(=O)N2 [Ex. 211] (Ac-CWSYCV[dDab]RLCYN[Orn]C[dDab][Dab][Dab][dF]L[Dab][Dab]T; disulfide 1-14, 5-10; lactam 16-C)										2%	2 µg/mL	2 µg/mL	8 µg/mL	2 µg/mL	0.5 µg/mL	1 µg/mL	1 µg/mL
CCCC[C@@H]1NC(=O)[C@@H]2CCCN2C(=O)[C@H]2CCCN2C(=O)[C@H](CO)NC(=O)[C@H](C)NC(=O)[C@H](C(C)(C)C)NC(=O)[C@@H](NC(=O)[C@H](Cc2c[nH]c3ccccc23)NC(C)=O)CSSC[C@@H](C(=O)N[C@@H](CCN)C(=O)N[C@H](C(=O)N[C@@H](CCN)C(=O)N[C@H]2CCNC(=O)[C@H]([C@@H](C)O)NC(=O)[C@H](CCN)NC(=O)[C@H](CCN)NC(=O)[C@H](CC(C)C)NC(=O)[C@@H](Cc3ccccc3)NC(=O)[C@H](CCN)NC2=O)[C@@H](C)O)NC(=O)[C@H](Cc2ccc(O)cc2)NC(=O)[C@H](CO)NC1=O [Ex. 12] (Ac-WC[Tle]AS[dP]P[Nle]SYC[Dab]T[Dab][Dab][Dab][dF]L[Dab][Dab]T; disulfide 2-11; lactam 15-C)		0.5 µg/mL	0.125 µg/mL	0.5 µg/mL	0.125 µg/mL	0.125 µg/mL	0.125 µg/mL	0.0625 µg/mL	<1%								
CCCC[C@@H]1NC(=O)[C@@H]2CCCN2C(=O)[C@H]2CCCN2C(=O)[C@H](CO)NC(=O)[C@H](C)NC(=O)[C@H](C(C)(C)C)NC(=O)[C@H](CCN)NC(=O)[C@H](Cc2c[nH]c3ccccc23)NC(=O)[C@H](CCN)NC(=O)[C@@H](CCC(=O)N[C@@H](CCN)C(=O)N[C@H](C(=O)N[C@@H](CCN)C(=O)N[C@H]2CCNC(=O)[C@H]([C@@H](C)O)NC(=O)[C@H](CCN)NC(=O)[C@H](CCN)NC(=O)[C@H](CC(C)C)NC(=O)[C@@H](Cc3ccccc3)NC(=O)[C@H](CCN)NC2=O)[C@@H](C)O)NC(=O)[C@H](CCCN)NC(=O)[C@H](CCN)NC(=O)[C@H](Cc2ccc(O)cc2)NC(=O)[C@H](CO)NC1=O [Ex. 9] (I: cyclo([Nle]SY[Dab][Orn][dE][Dab]W[Dab][Tle]AS[dP]P) / II: [Dab]T[Dab][Dab][Dab][dF]L[Dab][Dab]T; amide I:6-II:N; lactam II:4-II:C)	1%	0.5 µg/mL	1 µg/mL	2 µg/mL	2 µg/mL	0.25 µg/mL	0.5 µg/mL	0.25 µg/mL									
CCCC[C@@H]1NC(=O)[C@@H]2CCCN2C(=O)[C@H]2CCCN2C(=O)[C@H](CO)NC(=O)[C@H](C)NC(=O)[C@H](C(C)(C)C)NC(=O)[C@@H](NC(=O)[C@H](Cc2c[nH]c3ccccc23)NC(C)=O)CSSC[C@@H](C(=O)N[C@@H](CCCN)C(=O)N[C@H](C(=O)N[C@@H](CCN)C(=O)N[C@H]2CCNC(=O)[C@H]([C@@H](C)O)NC(=O)[C@H](CCN)NC(=O)[C@H](CCN)NC(=O)[C@H](CC(C)C)NC(=O)[C@@H](Cc3ccccc3)NC(=O)[C@H](CCN)NC2=O)[C@@H](C)O)NC(=O)[C@H](Cc2ccc(O)cc2)NC(=O)[C@H](CO)NC1=O [Ex. 13] (Ac-WC[Tle]AS[dP]P[Nle]SYC[Orn]T[Dab][Dab][Dab][dF]L[Dab][Dab]T; disulfide 2-11; lactam 15-C)		0.5 µg/mL	0.5 µg/mL	1 µg/mL	0.25 µg/mL	0.5 µg/mL	0.5 µg/mL	0.125 µg/mL	1%								
